Data: ChEMBL document CHEMBL1201862, “PubChem BioAssay data set” (2004)
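Protocol summary: plate cells (96-well), add compound at 5 concentrations, incubate 48 h, interpolate endpoints linearly. At the GI50, growth is halved.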 Calls of active or inactive are those of the source. Cut-off read from the data, not from the text of the source: active = GI50 up to about 1.1 µM and inactive = higher.

Experiments:
Assay in all cases: inhibition of tumour cell growth, NCI panel, 48 h
UACC-62 = test system: UACC-62
HCT-116 = test system: HCT-116
U-251 = test system: U-251
M19-MEL = test system: M19-MEL
RPMI-8226 = test system: RPMI-8226
DMS-273 = test system: DMS-273
SN12C = test system: SN12C
OVCAR-3 = test system: OVCAR-3
M14 = test system: M14
PC-3 = test system: PC-3
XF498 = test system: XF498
Malme-3M = test system: Malme-3M
KM-20L2 = test system: KM-20L2
OVCAR-5 = test system: OVCAR-5
Hs-578T = test system: Hs-578T
UO-31 = test system: UO-31
MDA-MB-435 = test system: MDA-MB-435
COLO 205 = test system: COLO 205
HCT-15 = test system: HCT-15
NCI-H522 = test system: NCI-H522
RXF 631 = test system: RXF 631
CAKI-1 = test system: CAKI-1
KM12 = test system: KM12
K562 = test system: K562
SW-620 = test system: SW-620
MDA-N = test system: MDA-N
SK-MEL-5 = test system: SK-MEL-5
SNB-19 = test system: SNB-19
HL-60 = test system: HL-60
HCC 2998 = test system: HCC 2998
SK-MEL-2 = test system: SK-MEL-2
DMS-114 = test system: DMS-114
SK-MEL-28 = test system: SK-MEL-28
HT-29 = test system: HT-29
SF-539 = test system: SF-539
ACHN = test system: ACHN
EKVX = test system: EKVX
SR = test system: SR
LXFL 529 = test system: LXFL 529
SK-OV-3 = test system: SK-OV-3
IGROV-1 = test system: IGROV-1
TK-10 = test system: TK-10
HOP-18 = test system: HOP-18
LOX IMVI = test system: LOX IMVI
OVCAR-8 = test system: OVCAR-8
BT-549 = test system: BT-549
NCI-H23 = test system: NCI-H23
DU-145 = test system: DU-145
HOP-62 = test system: HOP-62
OVCAR-4 = test system: OVCAR-4
T47D = test system: T47D
NCI-H226 = test system: NCI-H226
786-0 = test system: 786-0
A549 = test system: A549
SF-268 = test system: SF-268
MCF7 = test system: MCF7
A498 = test system: A498
DLD-1 = test system: DLD-1
MOLT-4 = test system: MOLT-4
RXF 393 = test system: RXF 393
SF-295 = test system: SF-295
CCRF-CEM = test system: CCRF-CEM
UACC-257 = test system: UACC-257
SNB-78 = test system: SNB-78
HOP-92 = test system: HOP-92
NCI-H460 = test system: NCI-H460
MDA-MB-231 = test system: MDA-MB-231
NCI/ADR-RES = test system: NCI/ADR-RES
SNB-75 = test system: SNB-75

For `CC1(C)C(=O)/C=C\C(=O)C(C)(C)C(=O)/C=C\C(=O)C(C)(C)C2=CC=C(O2)C(C)(C)C(=O)/C=C\C1=O`, the GI50 (UACC-62) was 5.07 µM (inactive), the GI50 (HCT-116) was 2.08 µM (inactive) and the GI50 (U-251) was 15.7 µM (inactive). The GI50 (M19-MEL) was 5.86 µM (inactive), the GI50 (RPMI-8226) was 0.789 µM (active) and the GI50 (DMS-273) was 2.94 µM (inactive). The GI50 (SN12C) was 5.48 µM (inactive), the GI50 (OVCAR-3) was 3.27 µM (inactive) and the GI50 (M14) was 2.21 µM (inactive). The GI50 (PC-3) was 15.8 µM (inactive), the GI50 (XF498) was 1.88 µM (inactive) and the GI50 (Malme-3M) was 1.91 µM (inactive). For the same molecule, the GI50 (KM-20L2) was 13.9 µM (inactive), the GI50 (OVCAR-5) was 20.8 µM (inactive) and the GI50 (Hs-578T) was 16.9 µM (inactive). For the same molecule, the GI50 (UO-31) was 14.5 µM (inactive), the GI50 (MDA-MB-435) was 15.7 µM (inactive) and the GI50 (COLO 205) was 2.29 µM (inactive). For the same molecule, the GI50 (HCT-15) was 3.7 µM, the GI50 (NCI-H522) was 1.44 µM (inactive) and the GI50 (RXF 631) was 7.82 µM (inactive). For the same molecule, the GI50 (CAKI-1) was 3.84 µM (inactive), the GI50 (KM12) was 12.7 µM (inactive) and the GI50 (K562) was 1.63 µM (inactive). For the same molecule, the GI50 (SW-620) was 1.66 µM (inactive), the GI50 (MDA-N) was 5.01 µM (inactive) and the GI50 (SK-MEL-5) was 7.85 µM (inactive). For the same molecule, the GI50 (SNB-19) was 16.7 µM (inactive), the GI50 (HL-60) was 0.684 µM (active) and the GI50 (HCC 2998) was 11.7 µM (inactive). For the same molecule, the GI50 (SK-MEL-2) was 12.1 µM (inactive), the GI50 (DMS-114) was 8.26 µM (inactive) and the GI50 (SK-MEL-28) was 4.99 µM (inactive). The GI50 (HT-29) was 2.89 µM (inactive), the GI50 (SF-539) was 9.62 µM (inactive) and the GI50 (ACHN) was 3.63 µM (inactive). The GI50 (EKVX) was 5.21 µM (inactive), the GI50 (SR) was 1.22 µM (inactive) and the GI50 (LXFL 529) was 2.4 µM (inactive). The GI50 (SK-OV-3) was 15.9 µM (inactive), the GI50 (IGROV-1) was 9.18 µM (inactive) and the GI50 (TK-10) was 7.6 µM (inactive). For the same molecule, the GI50 (HOP-18) was 22.5 µM (inactive), the GI50 (LOX IMVI) was 5.14 µM (inactive) and the GI50 (OVCAR-8) was 4.44 µM (inactive). The GI50 (BT-549) was 11.9 µM (inactive), the GI50 (NCI-H23) was 5.55 µM (inactive) and the GI50 (DU-145) was 17.9 µM (inactive). For the same molecule, the GI50 (HOP-62) was 24.3 µM (inactive), the GI50 (OVCAR-4) was 6.61 µM (inactive) and the GI50 (T47D) was 0.0775 µM (active). For the same molecule, the GI50 (NCI-H226) was 13.6 µM (inactive), the GI50 (786-0) was 2.24 µM (inactive) and the GI50 (A549) was 21.1 µM (inactive). For the same molecule, the GI50 (SF-268) was 16.6 µM (inactive), the GI50 (MCF7) was 10.6 µM (inactive) and the GI50 (A498) was 16.8 µM (inactive). The GI50 (DLD-1) was 1.72 µM (inactive), the GI50 (MOLT-4) was 1.27 µM (inactive) and the GI50 (RXF 393) was 2 µM (inactive). For the same molecule, the GI50 (SF-295) was 17.3 µM (inactive), the GI50 (CCRF-CEM) was 0.368 µM (active) and the GI50 (UACC-257) was 5.71 µM (inactive). The GI50 (SNB-78) was 3.71 µM (inactive), the GI50 (HOP-92) was 1.8 µM (inactive) and the GI50 (NCI-H460) was 20.5 µM (inactive).

`O=[N+]([O-])c1cc(C(F)(F)F)cc2n[se]nc12` was tested, and the GI50 (UACC-62) was 4.15 µM (inactive), the GI50 (HCT-116) was 1.75 µM (inactive) and the GI50 (U-251) was 15.1 µM (inactive). The GI50 (M19-MEL) was 3.33 µM (inactive), the GI50 (RPMI-8226) was 1.21 µM (inactive) and the GI50 (DMS-273) was 13.2 µM (inactive). For the same molecule, the GI50 (SN12C) was 4.88 µM (inactive), the GI50 (OVCAR-3) was 1.67 µM (inactive) and the GI50 (M14) was 1.71 µM (inactive). The GI50 (PC-3) was 4 µM (inactive), the GI50 (XF498) was 2.39 µM (inactive) and the GI50 (Malme-3M) was 1.79 µM (inactive). For the same molecule, the GI50 (KM-20L2) was 6.81 µM (inactive), the GI50 (OVCAR-5) was 13.1 µM (inactive) and the GI50 (Hs-578T) was 19.3 µM (inactive). For the same molecule, the GI50 (UO-31) was 5.53 µM (inactive), the GI50 (MDA-MB-435) was 2.33 µM (inactive) and the GI50 (COLO 205) was 2.03 µM (inactive). For the same molecule, the GI50 (HCT-15) was 2.28 µM, the GI50 (NCI-H522) was 3.13 µM (inactive) and the GI50 (RXF 631) was 11 µM (inactive). The GI50 (MDA-MB-231) was 2.13 µM (inactive), the GI50 (CAKI-1) was 4.6 µM (inactive) and the GI50 (KM12) was 9.33 µM (inactive). The GI50 (NCI/ADR-RES) was 2.12 µM (inactive), the GI50 (K562) was 0.822 µM (active) and the GI50 (SW-620) was 1.45 µM (inactive). For the same molecule, the GI50 (MDA-N) was 1.91 µM (inactive), the GI50 (SK-MEL-5) was 3.24 µM (inactive) and the GI50 (SNB-19) was 15.5 µM (inactive). The GI50 (HL-60) was 0.429 µM (active), the GI50 (HCC 2998) was 3.98 µM (inactive) and the GI50 (SK-MEL-2) was 8.38 µM (inactive). For the same molecule, the GI50 (DMS-114) was 2.36 µM (inactive), the GI50 (SK-MEL-28) was 2.22 µM (inactive) and the GI50 (HT-29) was 7.29 µM (inactive). The GI50 (SF-539) was 3.89 µM (inactive), the GI50 (ACHN) was 2.65 µM (inactive) and the GI50 (EKVX) was 5.3 µM (inactive). The GI50 (SR) was 1.36 µM (inactive), the GI50 (LXFL 529) was 1.72 µM (inactive) and the GI50 (SK-OV-3) was 13.6 µM (inactive). For the same molecule, the GI50 (IGROV-1) was 5.07 µM (inactive), the GI50 (TK-10) was 4.5 µM (inactive) and the GI50 (HOP-18) was 3.14 µM (inactive). For the same molecule, the GI50 (LOX IMVI) was 5.53 µM (inactive), the GI50 (OVCAR-8) was 1.97 µM (inactive) and the GI50 (SNB-75) was 7.64 µM (inactive). The GI50 (BT-549) was 2.81 µM (inactive), the GI50 (NCI-H23) was 3.93 µM (inactive) and the GI50 (DU-145) was 3.21 µM (inactive). The GI50 (HOP-62) was 15.7 µM (inactive), the GI50 (OVCAR-4) was 1.97 µM (inactive) and the GI50 (T47D) was 3.17 µM (inactive). For the same molecule, the GI50 (NCI-H226) was 20.6 µM (inactive), the GI50 (786-0) was 2.21 µM (inactive) and the GI50 (A549) was 11.4 µM (inactive). For the same molecule, the GI50 (SF-268) was 5 µM (inactive), the GI50 (MCF7) was 1.97 µM (inactive) and the GI50 (A498) was 16.8 µM (inactive). For the same molecule, the GI50 (DLD-1) was 3.18 µM (inactive), the GI50 (MOLT-4) was 1.48 µM (inactive) and the GI50 (RXF 393) was 2.3 µM (inactive). For the same molecule, the GI50 (SF-295) was 12.5 µM (inactive), the GI50 (CCRF-CEM) was 1.68 µM (inactive) and the GI50 (UACC-257) was 2.16 µM (inactive). For the same molecule, the GI50 (SNB-78) was 12.3 µM (inactive), the GI50 (HOP-92) was 2.26 µM (inactive) and the GI50 (NCI-H460) was 6.22 µM (inactive).
